Where a SMILES comes first, the peptide text is derived from it.
What was measured:
whole blood viscosity [1] = experiment: Whole blood viscosity by RBC pipette method after in vitro addition of APM to patient blood samples; design: species or system patients; conditions: for viscosity of the blood samples compared to the control: samples at 480 minutes post-treatment, additional 1 or 2 milligrams/milliliter APM in vitro
Method: (§1) To measure viscosity, 1.01 cc of the test fluid, i.e., either water, saline or blood, was drawn into an RBC pipette using a 50 cc syringe attached via rubber tubing to the top of the RBC pipette. Using a constant pressure of 20 mm by maintaining the pressure with visual feedback and hand pressure, the amount of time it took for the test fluid to drip out of the RBC pipette was measured with a stopwatch. Each measurement was made in triplicate. Changes in viscosity from baseline for patient blood samples were recorded and compared to normal controls.
Samples with high viscosity readings at 480 minutes or 1,440 minutes post-treatment, chosen to represent patients with a validated response to APM who were returning to normal, were divided and treated with an additional 0, 1, or 2 milligrams/milliliter APM in vitro, in an effort to measure whether a second inducible sickling response was possible and if a second response to the in vitro APM addition could be observed. The viscosity of each sample at 480 minutes post-treatment was measured.

[2] = clinical trial; unknown mechanism; cited from earlier work
whole blood viscosity [3] = experiment: Whole blood viscosity by RBC pipette method, before and after oral APM administration to patients; format: in vivo
Method: Blood samples were obtained from ten patients having homozygous HgBss disease or heterozygous Hgbsc disease before and after a blinded administration of APM at 1.5 (low dose), 3 (medium dose), or 6 (high dose) milligrams per kilogram body weight. TABLE I: Patient Characteristics
Viscosity determinations using the RBC pipette method of Wright and Jenkins (1970, Blood 36:516) were made on each blinded whole blood sample before and 120 minutes after blinded administration of APM. Each measurement was made in triplicate. Control viscosity measurements using saline and water for each patient and normal whole blood were also made to validate the viscosity measurements.
as §1

[4] = tested on: red blood cells containing HbS; conditions: disclosed in WO 00/18418; cited from earlier work
sickle cells = experiment: Metabisulfite slide test to measure sickling in blood samples; format: cell-based, patients
[5] = all ten patients, baseline vs 120 minutes post-treatment, APM 1.5, 3 or 6 mg/kg body weight

SMILES: COC(=O)[C@H](Cc1ccccc1)NC(=O)[C@@H](N)CC(=O)O [APM, N-L-alpha-aspartyl-L-phenylalanine 1-methyl ester] (H-Asp-Phe-OMe)
- effect on Hgbsc blood (whole blood viscosity [1]; APM in vitro): not affected
- viscosity of the blood samples compared to the control (whole blood viscosity [1]; HgBss patients): decreased
- viscosity of the blood samples compared to the control (whole blood viscosity [1]; Hgbsc patients): increase
- viscosity of HgBss blood (whole blood viscosity [1]; addition of APM in vitro): reduces
- pain and inflammation of osteo- and mixed osteo- and rheumatoid arthritis [2]: alleviate
- viscosity of HgBss blood (whole blood viscosity [3]; APM given orally): reduces
- effect on Hgbsc blood (whole blood viscosity [3]; APM in vivo): not affected
- No. of Patients, Viscosity change decreasing, HgBss (whole blood viscosity [3]; HgBss patients, baseline vs 120 minutes post-treatment): 5
- No. of Patients, Viscosity change increasing, Hgbsc (whole blood viscosity [3]; Hgbsc patients, baseline vs 120 minutes post-treatment): 3
- No. of Patients, Viscosity change decreasing (whole blood viscosity [3]; [5]): 7
- No. of Patients, Viscosity change increasing (whole blood viscosity [3]; [5]): 3
- viscosity compared against Pirofsky's change in viscosity vs. hematocrit standard (whole blood viscosity [3]; blood samples from patients with sickle cell disease (HgBss)): decreased
- viscosity compared against Pirofsky's change in viscosity vs. hematocrit standard (whole blood viscosity [3]; blood samples from patients with sickle cell trait (Hbgsc)): increased
- blood viscosity after treatment over time (whole blood viscosity [3]; five patients identified as HgBss, baseline vs 120 minutes post-treatment): decreased
- No. of Patients, Viscosity change decreasing, sbthal (whole blood viscosity [3]; sbthal patients, baseline vs 120 minutes post-treatment): 2
- viscosity after treatment over time (whole blood viscosity [3]; three patients diagnosed as Hgbsc, baseline vs 120 minutes post-treatment): increased
- blood viscosity after treatment over time (whole blood viscosity [3]; two patients diagnosed as sbthal, baseline vs 120 minutes post-treatment): decreased
- capacity of red blood cells containing HbS to sickle with hypoxemia [4]: reduction
- number of sickle cells in HgBss blood (sickle cells; APM given orally): reduces
- number of sickle cells in HgBss blood (sickle cells; addition of APM in vitro): reduces

From patent publication EP1218024B1, “ASPARTAME DERIVATIVES FOR DECREASING BLOOD VISCOSITY” (Oklahoma Medical Research Foundation, priority 1999, dated 2001)
